Test results as given in article PMC5513037, “Examining the influence of specificity ligands and ATP-competitive ligands on the overall effectiveness of bivalent kinase inhibitors” (Proteome Science, 2017).

How the values were obtained:
Experiment in all cases: KAM-matrix competition in K562 lysate;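 on 0.001 uM KAM: median log10 fold change of treatment over DMSO control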;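 on 0.01 uM KAM: median log10 fold change of treatment over DMSO control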;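 on 0.1 uM KAM: median log10 fold change of treatment over DMSO control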;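 on 1 uM KAM: median log10 fold change of treatment over DMSO control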;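 on 10 uM KAM: median log10 fold change of treatment over DMSO control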
Assay type in all cases: binding
STK16 = target: T1, STK16 (Homo sapiens, UniProt O75716)
T1 construct: K562 cell pellets were thawed on ice and resuspended in cold Lysis buffer; endogenous in cells; host or cells: K562
T1 sequence (O75716 whole entry): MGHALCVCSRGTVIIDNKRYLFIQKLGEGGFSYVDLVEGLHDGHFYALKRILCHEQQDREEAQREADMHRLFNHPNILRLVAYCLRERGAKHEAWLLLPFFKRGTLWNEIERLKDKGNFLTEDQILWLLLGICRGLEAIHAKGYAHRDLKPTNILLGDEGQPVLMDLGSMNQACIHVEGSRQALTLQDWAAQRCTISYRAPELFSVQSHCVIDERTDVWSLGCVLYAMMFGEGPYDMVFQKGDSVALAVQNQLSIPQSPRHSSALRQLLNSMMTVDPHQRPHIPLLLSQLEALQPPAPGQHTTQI
Method: (§1) Supplement 12953_2017_125_MOESM1_ESM.zip/MS_Supp Info.xlsx, sheet "KAM" | column: 10 uM KAM; 1 uM KAM; 0.1 uM KAM; 0.01 uM KAM; 0.001 uM KAM; RB50

PRKAA1 = target: T2, PRKAA1 (Homo sapiens, UniProt Q13131)
T2 construct: endogenous in cells; host or cells: K562
T2 sequence (Q13131 whole entry): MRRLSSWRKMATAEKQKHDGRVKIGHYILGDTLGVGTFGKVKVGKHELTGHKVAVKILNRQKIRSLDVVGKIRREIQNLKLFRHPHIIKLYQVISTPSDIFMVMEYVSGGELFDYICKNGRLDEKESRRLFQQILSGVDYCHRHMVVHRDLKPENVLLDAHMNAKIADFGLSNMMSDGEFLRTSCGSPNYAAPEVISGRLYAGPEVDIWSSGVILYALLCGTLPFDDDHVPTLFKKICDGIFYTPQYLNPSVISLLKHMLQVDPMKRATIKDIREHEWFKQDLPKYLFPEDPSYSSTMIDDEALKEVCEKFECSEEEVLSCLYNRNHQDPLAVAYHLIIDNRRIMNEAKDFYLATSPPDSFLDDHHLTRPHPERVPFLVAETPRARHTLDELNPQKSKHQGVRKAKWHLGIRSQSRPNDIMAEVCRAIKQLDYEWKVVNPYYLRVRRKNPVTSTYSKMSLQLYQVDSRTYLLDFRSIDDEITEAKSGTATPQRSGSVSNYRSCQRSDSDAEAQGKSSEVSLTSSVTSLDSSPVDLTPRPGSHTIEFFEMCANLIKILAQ
T2 sequence (Q9Y478 2-270 partner limits assumed): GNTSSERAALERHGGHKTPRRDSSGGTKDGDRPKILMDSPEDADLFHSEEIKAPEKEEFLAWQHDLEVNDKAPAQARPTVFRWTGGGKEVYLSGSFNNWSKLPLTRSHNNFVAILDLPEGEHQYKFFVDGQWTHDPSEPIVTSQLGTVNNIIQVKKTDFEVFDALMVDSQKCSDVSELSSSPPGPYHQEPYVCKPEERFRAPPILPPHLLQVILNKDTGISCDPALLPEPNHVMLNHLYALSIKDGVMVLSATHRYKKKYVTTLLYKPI
T2 sequence (P54619 whole entry partner): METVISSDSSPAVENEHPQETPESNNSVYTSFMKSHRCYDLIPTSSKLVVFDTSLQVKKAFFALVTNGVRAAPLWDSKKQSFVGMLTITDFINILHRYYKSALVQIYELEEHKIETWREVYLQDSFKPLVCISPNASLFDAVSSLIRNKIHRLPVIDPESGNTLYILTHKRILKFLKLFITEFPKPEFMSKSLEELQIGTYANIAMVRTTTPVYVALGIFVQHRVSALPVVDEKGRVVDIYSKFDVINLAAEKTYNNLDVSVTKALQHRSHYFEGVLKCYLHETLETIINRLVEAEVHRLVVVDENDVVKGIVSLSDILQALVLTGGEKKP
Method: as §1

ATR = target: T3, ATR (Homo sapiens, UniProt Q13535);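 on 0.001 uM KAM: median log10 fold change of treatment over DMSO control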;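 on 0.01 uM KAM: median log10 fold change of treatment over DMSO control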;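 on 0.1 uM KAM: median log10 fold change of treatment over DMSO control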;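 on 1 uM KAM: median log10 fold change of treatment over DMSO control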;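 on 10 uM KAM: median log10 fold change of treatment over DMSO control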
T3 construct: endogenous in cells; host or cells: K562
Method: as §1

STK25 = target: T4, STK25 (Homo sapiens, UniProt O00506);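 on 0.001 uM KAM: median log10 fold change of treatment over DMSO control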;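 on 0.01 uM KAM: median log10 fold change of treatment over DMSO control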;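 on 0.1 uM KAM: median log10 fold change of treatment over DMSO control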;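 on 1 uM KAM: median log10 fold change of treatment over DMSO control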;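 on 10 uM KAM: median log10 fold change of treatment over DMSO control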
T4 construct: endogenous in cells; host or cells: K562 cell lysate
T4 sequence (O00506 whole entry): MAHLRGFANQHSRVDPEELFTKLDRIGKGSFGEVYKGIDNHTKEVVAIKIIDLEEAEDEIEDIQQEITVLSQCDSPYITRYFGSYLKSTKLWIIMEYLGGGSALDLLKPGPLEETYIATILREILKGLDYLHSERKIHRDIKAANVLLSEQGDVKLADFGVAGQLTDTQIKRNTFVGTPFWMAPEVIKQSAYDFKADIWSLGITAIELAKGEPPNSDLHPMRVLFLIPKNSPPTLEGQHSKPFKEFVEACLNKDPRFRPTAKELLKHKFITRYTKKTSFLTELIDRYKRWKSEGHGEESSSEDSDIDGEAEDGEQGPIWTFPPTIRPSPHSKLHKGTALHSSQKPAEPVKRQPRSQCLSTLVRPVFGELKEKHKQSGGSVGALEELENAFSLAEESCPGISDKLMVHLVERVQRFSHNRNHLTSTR
Method: as §1

LATS2 = target: T5, LATS2 (Homo sapiens, UniProt Q9NRM7)
T5 construct: endogenous in cells; host or cells: K562
T5 sequence (Q9NRM7 1-1088): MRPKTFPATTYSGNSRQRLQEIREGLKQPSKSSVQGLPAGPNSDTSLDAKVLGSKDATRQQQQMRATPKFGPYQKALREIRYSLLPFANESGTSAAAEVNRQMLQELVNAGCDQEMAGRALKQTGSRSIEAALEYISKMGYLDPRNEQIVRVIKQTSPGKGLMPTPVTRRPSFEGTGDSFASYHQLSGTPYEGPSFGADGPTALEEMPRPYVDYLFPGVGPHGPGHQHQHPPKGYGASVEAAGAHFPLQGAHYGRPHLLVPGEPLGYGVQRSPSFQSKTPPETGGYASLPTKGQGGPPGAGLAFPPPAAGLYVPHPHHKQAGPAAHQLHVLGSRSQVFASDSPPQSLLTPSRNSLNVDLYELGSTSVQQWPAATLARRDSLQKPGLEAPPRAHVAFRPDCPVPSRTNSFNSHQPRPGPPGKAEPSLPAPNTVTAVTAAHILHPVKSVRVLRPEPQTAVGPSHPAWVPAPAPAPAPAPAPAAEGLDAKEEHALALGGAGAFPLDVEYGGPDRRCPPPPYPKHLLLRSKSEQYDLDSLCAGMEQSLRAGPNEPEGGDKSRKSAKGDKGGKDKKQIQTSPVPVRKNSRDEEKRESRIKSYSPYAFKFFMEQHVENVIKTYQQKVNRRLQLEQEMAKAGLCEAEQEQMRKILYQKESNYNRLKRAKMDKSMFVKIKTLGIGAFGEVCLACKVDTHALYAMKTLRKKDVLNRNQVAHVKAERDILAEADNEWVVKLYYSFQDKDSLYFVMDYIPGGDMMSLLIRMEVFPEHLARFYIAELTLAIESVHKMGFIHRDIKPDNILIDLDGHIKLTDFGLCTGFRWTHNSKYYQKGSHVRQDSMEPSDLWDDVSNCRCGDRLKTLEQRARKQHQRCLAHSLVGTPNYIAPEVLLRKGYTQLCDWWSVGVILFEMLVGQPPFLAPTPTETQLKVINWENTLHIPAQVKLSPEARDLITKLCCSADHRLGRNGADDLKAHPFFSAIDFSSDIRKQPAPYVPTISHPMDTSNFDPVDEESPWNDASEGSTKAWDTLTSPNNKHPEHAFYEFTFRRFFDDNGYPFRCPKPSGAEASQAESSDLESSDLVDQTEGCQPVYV
Method: as §1

TNK1 = target: T6, TNK1 (Homo sapiens, UniProt Q13470)
T6 construct: endogenous in cells; host or cells: K562
T6 sequence (Q13470 1-666): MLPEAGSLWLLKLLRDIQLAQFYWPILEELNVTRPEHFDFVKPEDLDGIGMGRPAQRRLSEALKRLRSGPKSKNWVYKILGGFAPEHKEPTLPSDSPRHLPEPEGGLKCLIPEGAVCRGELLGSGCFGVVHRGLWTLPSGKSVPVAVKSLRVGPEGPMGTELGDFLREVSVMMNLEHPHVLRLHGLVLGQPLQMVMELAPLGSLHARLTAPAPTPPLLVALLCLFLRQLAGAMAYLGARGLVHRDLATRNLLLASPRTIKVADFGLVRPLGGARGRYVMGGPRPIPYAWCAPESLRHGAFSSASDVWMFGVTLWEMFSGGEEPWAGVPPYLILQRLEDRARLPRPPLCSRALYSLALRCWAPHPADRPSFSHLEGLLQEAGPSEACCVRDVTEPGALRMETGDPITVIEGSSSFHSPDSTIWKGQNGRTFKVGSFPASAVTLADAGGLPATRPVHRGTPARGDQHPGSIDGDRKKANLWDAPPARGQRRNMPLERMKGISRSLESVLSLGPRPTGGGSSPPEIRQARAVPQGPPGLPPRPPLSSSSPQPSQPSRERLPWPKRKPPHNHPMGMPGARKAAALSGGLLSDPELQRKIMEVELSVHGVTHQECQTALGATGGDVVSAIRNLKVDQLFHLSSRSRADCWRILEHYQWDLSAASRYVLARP
Method: as §1

HIPK3 = target: T7, HIPK3 (Homo sapiens, UniProt Q9H422);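 on 0.001 uM KAM: median log10 fold change of treatment over DMSO control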;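 on 0.01 uM KAM: median log10 fold change of treatment over DMSO control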;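 on 0.1 uM KAM: median log10 fold change of treatment over DMSO control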;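 on 1 uM KAM: median log10 fold change of treatment over DMSO control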;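 on 10 uM KAM: median log10 fold change of treatment over DMSO control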
T7 construct: endogenous in cells; host or cells: K562 cells (combined S0.8 and P0.8 lysate)
T7 sequence (Q9H422 whole entry): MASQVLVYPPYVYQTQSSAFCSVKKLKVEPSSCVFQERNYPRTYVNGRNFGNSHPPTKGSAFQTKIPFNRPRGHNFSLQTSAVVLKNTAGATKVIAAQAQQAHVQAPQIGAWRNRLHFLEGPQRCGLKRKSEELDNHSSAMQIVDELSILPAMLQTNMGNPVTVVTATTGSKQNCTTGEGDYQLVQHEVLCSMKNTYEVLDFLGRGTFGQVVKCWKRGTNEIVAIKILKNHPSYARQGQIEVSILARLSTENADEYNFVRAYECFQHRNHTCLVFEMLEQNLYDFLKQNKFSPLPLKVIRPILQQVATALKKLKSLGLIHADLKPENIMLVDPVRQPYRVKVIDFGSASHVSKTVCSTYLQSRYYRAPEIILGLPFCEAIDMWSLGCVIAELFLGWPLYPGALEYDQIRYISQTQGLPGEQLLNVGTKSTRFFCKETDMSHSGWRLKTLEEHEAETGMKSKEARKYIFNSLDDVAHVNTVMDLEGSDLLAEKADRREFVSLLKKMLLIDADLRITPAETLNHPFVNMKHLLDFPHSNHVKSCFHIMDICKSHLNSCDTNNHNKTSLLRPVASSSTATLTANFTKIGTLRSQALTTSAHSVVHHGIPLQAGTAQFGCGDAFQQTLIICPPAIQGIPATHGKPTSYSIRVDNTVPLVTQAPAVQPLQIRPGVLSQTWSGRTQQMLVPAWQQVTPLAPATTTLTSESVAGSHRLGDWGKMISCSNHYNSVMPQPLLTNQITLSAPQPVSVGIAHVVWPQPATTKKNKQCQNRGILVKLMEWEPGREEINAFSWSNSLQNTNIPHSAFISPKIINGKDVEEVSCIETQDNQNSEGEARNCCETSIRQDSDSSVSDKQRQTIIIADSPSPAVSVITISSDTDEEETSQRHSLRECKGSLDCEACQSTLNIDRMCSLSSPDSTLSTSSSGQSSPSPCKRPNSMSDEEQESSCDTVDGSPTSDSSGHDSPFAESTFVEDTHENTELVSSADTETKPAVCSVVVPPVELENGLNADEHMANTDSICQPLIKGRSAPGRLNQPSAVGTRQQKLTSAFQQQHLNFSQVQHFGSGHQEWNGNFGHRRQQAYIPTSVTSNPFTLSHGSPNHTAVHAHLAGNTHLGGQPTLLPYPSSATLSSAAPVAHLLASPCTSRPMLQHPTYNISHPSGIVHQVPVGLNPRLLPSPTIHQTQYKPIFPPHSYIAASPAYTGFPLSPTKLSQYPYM
Method: as §1

[1] = read-out: RB50 (the source's name)
[2] = KAM 0.001-10 uM, read-out: RB50 (the source's name)

N#CCc1ccc(Nc2nc(NCCCN)cc(Nc3cc(C4CC4)[nH]n3)n2)cc1 [KAM]
median Log10 fold change (STK16; 0.001 uM KAM): -0.0101
median Log10 fold change (STK16; 0.01 uM KAM): -0.01878
median Log10 fold change (STK16; 0.1 uM KAM): -0.1698
median Log10 fold change (STK16; 1 uM KAM): -0.3768
median Log10 fold change (STK16; 10 uM KAM): -0.4318
IC50 (STK16; [1]): 673 nM
median Log10 fold change (PRKAA1; 0.001 uM KAM): 0.006818
median Log10 fold change (PRKAA1; 0.01 uM KAM): -0.02218
median Log10 fold change (PRKAA1; 0.1 uM KAM): -0.1974
median Log10 fold change (PRKAA1; 1 uM KAM): -0.5073
median Log10 fold change (PRKAA1; 10 uM KAM): -0.6565
IC50 (PRKAA1; [1]): 284 nM
IC50 (ATR; [2]): > 10000 nM
0.001 uM KAM (ATR; relative to 0 uM KAM = 0): -0.04695
0.01 uM KAM (ATR; relative to 0 uM KAM = 0): 0.002576
0.1 uM KAM (ATR; relative to 0 uM KAM = 0): -0.08926
1 uM KAM (ATR; relative to 0 uM KAM = 0): -0.01418
10 uM KAM (ATR; relative to 0 uM KAM = 0): 0.03196
IC50 (STK25; [2]): > 10000 nM
0.001 uM KAM (STK25; relative to 0 uM KAM = 0): -0.05569
0.01 uM KAM (STK25; relative to 0 uM KAM = 0): -0.0234
0.1 uM KAM (STK25; relative to 0 uM KAM = 0): -0.1788
1 uM KAM (STK25; relative to 0 uM KAM = 0): -0.2616
10 uM KAM (STK25; relative to 0 uM KAM = 0): -0.2742
median Log10 fold change (LATS2; 0.001 uM KAM): 0.01099
median Log10 fold change (LATS2; 0.01 uM KAM): -0.05599
median Log10 fold change (LATS2; 0.1 uM KAM): -0.2153
median Log10 fold change (LATS2; 1 uM KAM): -0.4993
median Log10 fold change (LATS2; 10 uM KAM): -0.5621
IC50 (LATS2; [1]): 251 nM
median Log10 fold change (TNK1; 0.001 uM KAM): -0.003814
median Log10 fold change (TNK1; 0.01 uM KAM): -0.02527
median Log10 fold change (TNK1; 0.1 uM KAM): -0.2865
median Log10 fold change (TNK1; 1 uM KAM): -0.4389
median Log10 fold change (TNK1; 10 uM KAM): -0.4693
IC50 (TNK1; [1]): 199 nM
IC50 (HIPK3; [2]): > 10000 nM
0.001 uM KAM (HIPK3; relative to 0 uM KAM = 0): -0.01362
0.01 uM KAM (HIPK3; relative to 0 uM KAM = 0): -0.04323
0.1 uM KAM (HIPK3; relative to 0 uM KAM = 0): -0.04392
1 uM KAM (HIPK3; relative to 0 uM KAM = 0): -0.1209
10 uM KAM (HIPK3; relative to 0 uM KAM = 0): -0.16
